Structures can show the parent of a compound that is named as a salt.
Legend:
[1] = tested on: human ovarian OVCAR-3 carcinoma cells; experiment: Vascular disruption effects in human tumor xenograft model (tumor histology, hematoxylin and eosin Y); format: in vivo, Crl:Nu/Nu-nuBR mice; conditions: OVCAR-3 xenograft, 24 hours after dosing; for blood vessels in the necrotic areas / tumor necrosis pattern (central area of the tumors): 10 mg/kg test compound, 100 mg/kg CA4P
Procedure: (4-Methoxy-phenyl)-methyl-(2-methyl-quinazolin-4-yl)-amine hydrochloride was tested in a human tumor xenograft model to determine its vascular disruption effects. Crl:Nu/Nu-nuBR mice were grown and injected with 1×10^7 human ovarian OVCAR-3 carcinoma cells on the right flank and allowed to grow to various tumor volumes. Mice were then dosed with either vehicle, 100 mg/kg combretastatin A-4 phosphate (CA4P) (obtained from Toronto Research Chemicals, Ontario, Canada) or 10 mg/kg (4-Methoxy-phenyl)-methyl-(2-methyl-quinazolin-4-yl)-amine hydrochloride.
Animals were housed by groups in Positive Individual Ventilation (PIV) cages in flat-bottom cages (Thoren Caging Systems, Hazelton, Pa.) with no more than ten mice per cage. Cages contained autoclaved TEK-Fresh bedding (Harlan, Indianapolis, Ind.), which was changed every seven days. Environmental controls were set to maintain a temperature between 65° F. and 75° F. with a relative humidity of 30-70% in a 12:12 hour light:dark cycle. Animals were feed gamma-irradiated 2019 rodent chow ad libitum (Harlan, Indianapolis, Ind.). Tap water was sterilized using manufacture recommended conditions and supplied via an automated watering system ad libitum (Edstrom Industries, Waterford, Wis.). Twenty four hours after dosing, mice were sacrificed and tumors and hearts removed, fixed, sectioned and stained with hematoxylin and eosin Y (each obtained from Richard Allen Scientific, Kalamazoo, Mich.).

[2] = Phase I clinical trial, weekly intravenous administration, subjects with refractory solid tumors (safety, tolerability); format: in vivo, human; conditions: i.v. weekly x3 per 4 week cycle, 0.3-3.3 mg/m^2
Procedure: An open-label, dose-escalating, multiple-dose study to define the safety, tolerability and pharmacokinetics of weekly intravenous administration of (4-Methoxy-phenyl)-methyl-(2-methyl-quinazolin-4-yl)-amine hydrochloride was performed. A dosing schedule (each 4 week cycle) was performed for (4-Methoxy-phenyl)-methyl-(2-methyl-quinazolin-4-yl)-amine hydrochloride weekly for 3 weeks with no infusion on the fourth week of each cycle. Subjects with refractory solid tumors were enrolled in cohorts of 3. During Cycle 1, subjects were hospitalized during each infusion of (4-Methoxy-phenyl)-methyl-(2-methyl-quinazolin-4-yl)-amine hydrochloride and remained for observation and safety evaluation for approximately 24 hours following the end of the infusion. All subject had continuous telemetry for 2 hours prior to infusion, for 1-2 hour infusion and for 3 hours after the end of the infusion. Any clinically significant electrocardiographic (ECG) wave form abnormality was recorded and prolongation of the monitoring period extended at the discretion of the principal investigator.
Electrocardiograms were obtained prior to starting the infusion and within 30 minutes of the end of infusion for each infusino of the first cycle. Electrocardiograms on Day 1 were obtained in triplicate 5 minutes apart.
Neurocognitive assessments were made by administration of the Mini-Mental State Examination (MMSE), the Hopkins Verbal Learning and timed Grooved Pegboard tests before administration of the intravenous infusion and approximately 24 hours of the infusion at each weekly administration of the first cycle.
On days 1, 8, and 15 of each cycle, vital signs were obtained prior to the first dose, at 15, 30, and 60 minutes after the initiation of the infusion, and at 0.5, 1, 1.5, 2, and 4 hours after the end of the intravenous infusion. Vital signs at all time points beyond the start of the intravenous infusion included heart rate, blood pressure and respirations. Temperature was measured at the end of the infusion and 4 hours later.
Individual subjects were allowed to continue on repeated weekly ×3 administrations every 28 days with no dose increase provided there was no unacceptable toxicity or disease progression.
Tumor response was evaluated by response evaluation criteria in solid tumors (RECIST) criteria. To prevent sever hypersensitivity reactions due to Cremophor® EL, subjects were premedicated with oral dexamethasone (20 mg) administered approximately 12 and 6 hours before the intervenous infusion with (4-Methoxy-phenyl)-methyl-(2-methyl-quinazolin-4-yl)-amine hydrochloride, diphenhydramine (50 mg) or its equivalent administered intravenously 30-60 minutes before (4-Methoxy-phenyl)-methyl-(2-methyl-quinazolin-4-yl)-amine hydrochloride, and cimetidine (300 mg) or ranitidine (50 mg) administered intravenously 30-60 minutes before (4-Methoxy-phenyl)-methyl-(2-methyl-quinazolin-4-yl)-amine hydrochloride.

| Compound | blood vessels in the necrotic areas [1] | tumor necrosis pattern (central area of the tumors) [1] | bradycardia [2] | dose limiting toxicity [2] | intratumor bleeding [2] | overall safety and tolerability [2] | peripheral cytotoxicity [2] | systolic blood pressure [2] | effects on cardiac conduction (PR, QRS or QTC) ([2]; ECG) | degree of necrosis compared with CA4P treated animals ([1]; 10 mg/kg vs 100 mg/kg CA4P) |
| --- | --- | --- | --- | --- | --- | --- | --- | --- | --- | --- |
| COc1ccc(/C=C\c2cc(OC)c(OC)c(OC)c2)cc1OP(=O)(O)O [CA4P, combretastatin A-4 phosphate, reference compound] | consistently congested with perivascular hemorrhage | extensive necrosis with a rim of viable tumor tissue around the periphery | – | – | – | – | – | – | – | – |
| COc1ccc(N(C)c2nc(C)nc3ccccc23)cc1 [(4-Methoxy-phenyl)-methyl-(2-methyl-quinazolin-4-yl)-amine hydrochloride] | consistently congested with perivascular hemorrhage | extensive necrosis with a rim of viable tumor tissue around the periphery | occasional episodes of bradycardia | vascular in nature, manifested by an acute coronary syndrome | incidences of intratumor bleeding | safe and tolerable | no evidence of cytotoxity peripherally | dose-related increase | no significant effects | greater |

Source: patent US20100093773A1, “METHODS OF TREATING CANCER” (Myriad Pharmaceuticals, Inc., priority 2007, published 2010)
